Measurements published in ChEMBL document CHEMBL1201861, “Genomics of Drug Sensitity in Cancer screening data, Wellcome Trust Sanger Institute”.

Assays:
Experiment in all cases: cells
Conditions in all cases: Homo sapiens
COLO-829 = type: functional, cell-based
Description: SANGER: Inhibition of human COLO-829 cell growth in a cell viability assay.

CP66-MEL = type: functional, cell-based;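 also: growth inhibition of CP66-MEL cells determined in a cell viability assay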
Description: SANGER: Inhibition of human CP66-MEL cell growth in a cell viability assay.

CW-2 = type: functional, cell-based;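 also: growth inhibition of CW-2 cells, read out by a cell viability assay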
Description: SANGER: Inhibition of human CW-2 cell growth in a cell viability assay.

DEL = type: functional, cell-based;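 also: growth inhibition of the human DEL cell line, read out with a cell viability assay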
Description: SANGER: Inhibition of human DEL cell growth in a cell viability assay.

DJM-1 = type: functional, cell-based;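 also: growth inhibition of human DJM-1 cells, read out by a cell viability assay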
Description: SANGER: Inhibition of human DJM-1 cell growth in a cell viability assay.

DoTc2-4510 = type: functional, cell-based
EM-2 = type: functional, cell-based;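 also: growth inhibition of EM-2 cells, read out with a cell viability assay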
Description: SANGER: Inhibition of human EM-2 cell growth in a cell viability assay.

ES4 = type: functional, cell-based;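 also: growth inhibition of human ES4 cells, read out by a cell viability assay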
Description: SANGER: Inhibition of human ES4 cell growth in a cell viability assay.

EW-18 = type: functional, cell-based;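 also: growth inhibition of EW-18 cells, read out by a cell viability assay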
Description: SANGER: Inhibition of human EW-18 cell growth in a cell viability assay.

GB-1 = type: functional, cell-based;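 also: growth of GB-1 cells judged by a viability assay, IC50 marks the concentration inhibiting growth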
Description: SANGER: Inhibition of human GB-1 cell growth in a cell viability assay.

GI-ME-N = type: functional, cell-based;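 also: growth inhibition of human GI-ME-N cells, read out with a cell viability assay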
Description: SANGER: Inhibition of human GI-ME-N cell growth in a cell viability assay.

GT3TKB = type: functional, cell-based;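 also: growth inhibition of the cell line, read out with a cell viability assay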
Description: SANGER: Inhibition of human GT3TKB cell growth in a cell viability assay.

HH = type: functional, cell-based
Description: SANGER: Inhibition of human HH cell growth in a cell viability assay.

HL-60 = type: functional, cell-based;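 also: growth inhibition of human HL-60 cells, read out with a cell viability assay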
Description: SANGER: Inhibition of human HL-60 cell growth in a cell viability assay.

IGROV-1 = type: functional, cell-based;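 also: reduction of IGROV-1 cell growth, read out with a viability assay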
Description: SANGER: Inhibition of human IGROV-1 cell growth in a cell viability assay.

IST-SL1 = type: functional, cell-based;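 also: growth inhibition of human IST-SL1 cells, read out with a cell viability assay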
Description: SANGER: Inhibition of human IST-SL1 cell growth in a cell viability assay.

JAR = type: functional, cell-based;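 also: growth inhibition of human JAR cells determined with a cell viability assay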
Description: SANGER: Inhibition of human JAR cell growth in a cell viability assay.

KM12 = type: functional, cell-based;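 also: KM12 cell growth inhibition, read out with a cell viability assay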
Description: SANGER: Inhibition of human KM12 cell growth in a cell viability assay.

KY821 = type: functional, cell-based;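 also: growth inhibition of human KY821 cells, read out by a cell viability assay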
Description: SANGER: Inhibition of human KY821 cell growth in a cell viability assay.

L-363 = type: functional, cell-based
Description: SANGER: Inhibition of human L-363 cell growth in a cell viability assay.

LB2241-RCC = type: functional, cell-based;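 also: cell viability assay measuring how strongly the cultured human renal carcinoma line is prevented from growing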
Description: SANGER: Inhibition of human LB2241-RCC cell growth in a cell viability assay.

LB831-BLC = type: functional, cell-based;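 also: growth inhibition of LB831-BLC cells, read out with a cell viability assay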
Description: SANGER: Inhibition of human LB831-BLC cell growth in a cell viability assay.

LS-123 = type: functional, cell-based
Description: SANGER: Inhibition of human LS-123 cell growth in a cell viability assay.

LS-411N = type: functional, cell-based
LU-134-A = type: functional, cell-based
Description: SANGER: Inhibition of human LU-134-A cell growth in a cell viability assay.

MEG-01 = type: functional, cell-based;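 also: growth inhibition of MEG-01 cells, read out by a cell viability assay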
Description: SANGER: Inhibition of human MEG-01 cell growth in a cell viability assay.

MFH-ino = type: functional, cell-based;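 also: growth inhibition of human MFH-ino cells, read out by a cell viability assay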
Description: SANGER: Inhibition of human MFH-ino cell growth in a cell viability assay.

MIA PaCa-2 = type: functional, cell-based;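 also: growth inhibition of MIA PaCa-2 cells, read out with a cell viability assay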
Description: SANGER: Inhibition of human MIA-PaCa-2 cell growth in a cell viability assay.

MKN-45 = type: functional, cell-based;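 also: growth inhibition of human MKN-45 cells, measured with a cell viability assay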
Description: SANGER: Inhibition of human MKN45 cell growth in a cell viability assay.

MOLT-16 = type: functional, cell-based;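 also: growth inhibition of human MOLT-16 cells, read out with a cell viability assay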
Description: SANGER: Inhibition of human MOLT-16 cell growth in a cell viability assay.

MOLT-4 = type: functional, cell-based;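 also: growth inhibition of MOLT-4 cells, determined with a cell viability readout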
Description: SANGER: Inhibition of human MOLT-4 cell growth in a cell viability assay.

MV4-11 = type: functional, cell-based, MV-4-11;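 also: cell viability readout measuring growth inhibition of human MV-4-11 cells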
Description: SANGER: Inhibition of human MV-4-11 cell growth in a cell viability assay.

MZ2-MEL = type: functional, cell-based;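 also: growth inhibition of MZ2-MEL cells read out with a cell viability assay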
Description: SANGER: Inhibition of human MZ2-MEL cell growth in a cell viability assay.

NB13 = type: functional, cell-based;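 also: cell viability readout measuring growth inhibition of human NB13 cells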
Description: SANGER: Inhibition of human NB13 cell growth in a cell viability assay.

NB69 = type: functional, cell-based;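 also: growth inhibition of NB69 cells, determined by a cell viability assay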
Description: SANGER: Inhibition of human NB69 cell growth in a cell viability assay.

NCI-H1299 = type: functional, cell-based;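 also: growth inhibition of human NCI-H1299 cells, read out by a cell viability assay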
Description: SANGER: Inhibition of human NCI-H1299 cell growth in a cell viability assay.

NCI-H1395 = type: functional, cell-based;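 also: cell viability assay read-out quantifying reduced proliferation of human NCI-H1395 cells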
Description: SANGER: Inhibition of human NCI-H1395 cell growth in a cell viability assay.

NCI-H1581 = type: functional, cell-based;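 also: cell growth inhibition read out by a viability assay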
Description: SANGER: Inhibition of human NCI-H1581 cell growth in a cell viability assay.

NCI-H1651 = type: functional, cell-based;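 also: Read-out is a cell viability assay, with IC50 expressing inhibition of NCI-H1651 cell growth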
Description: SANGER: Inhibition of human NCI-H1651 cell growth in a cell viability assay.

NCI-H2126 = type: functional, cell-based;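 also: growth inhibition of the cancer cell line, determined with a cell viability readout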
Description: SANGER: Inhibition of human NCI-H2126 cell growth in a cell viability assay.

NCI-H526 = type: functional, cell-based;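 also: growth inhibition of the human NCI-H526 cell line, measured by a cell viability assay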
Description: SANGER: Inhibition of human NCI-H526 cell growth in a cell viability assay.

NCI-H720 = type: functional, cell-based;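 also: growth inhibition of human NCI-H720 cells determined by a cell viability assay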
Description: SANGER: Inhibition of human NCI-H720 cell growth in a cell viability assay.

NKM-1 = type: functional, cell-based;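 also: growth inhibition of NKM-1 cells, read out with a cell viability assay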
Description: SANGER: Inhibition of human NKM-1 cell growth in a cell viability assay.

P30-OHK = type: functional, cell-based;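 also: growth inhibition of the P30-OHK cell line, read out with a cell viability assay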
Description: SANGER: Inhibition of human P30-OHK cell growth in a cell viability assay.

RPMI-2650 = type: functional, cell-based
Description: SANGER: Inhibition of human RPMI-2650 cell growth in a cell viability assay.

RS4-11 = type: functional, cell-based;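 also: growth inhibition of RS4-11 cells, read out by a cell viability assay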
Description: SANGER: Inhibition of human RS4-11 cell growth in a cell viability assay.

RXF 393 = type: functional, cell-based;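 also: growth inhibition of human RXF 393 cells, read out with a cell viability assay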
Description: SANGER: Inhibition of human RXF393 cell growth in a cell viability assay.

SK-LMS-1 = type: functional, cell-based;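 also: growth inhibition of human SK-LMS-1 cells, read out with a cell viability assay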
Description: SANGER: Inhibition of human SK-LMS-1 cell growth in a cell viability assay.

SW982 = type: functional, cell-based;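 also: growth inhibition of SW982 cells, read out with a cell viability assay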
Description: SANGER: Inhibition of human SW982 cell growth in a cell viability assay.

A204 = type: functional, cell-based;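 also: growth inhibition of human A204 cells, read out with a cell viability assay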
Description: SANGER: Inhibition of human A204 cell growth in a cell viability assay.

A4-Fuk = type: functional, cell-based;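 also: growth inhibition of A4-Fuk cells, read out by a cell viability assay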
Description: SANGER: Inhibition of human A4-Fuk cell growth in a cell viability assay.

A-431 = type: functional, cell-based;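 also: growth inhibition of A-431 cells, determined with a cell viability read-out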
Description: SANGER: Inhibition of human A431 cell growth in a cell viability assay.

ACN = type: functional, cell-based;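 also: growth inhibition of the human ACN cell line, read out via cell viability testing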
Description: SANGER: Inhibition of human ACN cell growth in a cell viability assay.

ALL-PO = type: functional, cell-based;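 also: growth inhibition of ALL-PO cells, read out by a cell viability assay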
Description: SANGER: Inhibition of human ALL-PO cell growth in a cell viability assay.

BB49-HNC = type: functional, cell-based;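 also: cell viability assay read-out, reported as inhibition of BB49-HNC cell growth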
Description: SANGER: Inhibition of human BB49-HNC cell growth in a cell viability assay.

BB65-RCC = type: functional, cell-based;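 also: growth inhibition of the cell line, measured with a cell viability assay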
Description: SANGER: Inhibition of human BB65-RCC cell growth in a cell viability assay.

BCPAP = type: functional, cell-based
Description: SANGER: Inhibition of human BCPAP cell growth in a cell viability assay.

BV-173 = type: functional, cell-based
Description: SANGER: Inhibition of human BV-173 cell growth in a cell viability assay.

Becker = type: functional, cell-based
Description: SANGER: Inhibition of human Becker cell growth in a cell viability assay.

TGBC24TKB = type: functional, cell-based
Description: SANGER: Inhibition of human TGBC24TKB cell growth in a cell viability assay.

U-266 = type: functional, cell-based
Description: SANGER: Inhibition of human U-266 cell growth in a cell viability assay.

VA-ES-BJ = type: functional, cell-based
Description: SANGER: Inhibition of human VA-ES-BJ cell growth in a cell viability assay.

COLO-320-HSR = type: functional, cell-based
Description: SANGER: Inhibition of human COLO-320-HSR cell growth in a cell viability assay.

Q: `Cn1cc(/C=C2\C(=O)Nc3cccnc32)c2ccccc21` was tested. Which IC50 (COLO-829) did it give?
A: > 2 µM

Q: What about the IC50 (CP66-MEL) of the same compound?
A: > 2 µM

Q: And the IC50 (CW-2)?
A: > 2 µM

Q: What about the IC50 (DEL) of the same compound?
A: > 2 µM

Q: What about the IC50 (DJM-1) of the same compound?
A: > 2 µM

Q: And the IC50 (DoTc2-4510)?
A: > 2 µM

Q: What about the IC50 (EM-2) of the same compound?
A: > 2 µM

Q: And the IC50 (ES4)?
A: > 2 µM

Q: And the IC50 (EW-18)?
A: > 2 µM

Q: And the IC50 (GB-1)?
A: > 2 µM

Q: What about the IC50 (GI-ME-N) of the same compound?
A: > 2 µM

Q: And the IC50 (GT3TKB)?
A: > 2 µM

Q: What about the IC50 (HH) of the same compound?
A: > 2 µM

Q: And the IC50 (HL-60)?
A: > 2 µM

Q: What about the IC50 (IGROV-1) of the same compound?
A: > 2 µM

Q: What about the IC50 (IST-SL1) of the same compound?
A: > 2 µM

Q: And the IC50 (JAR)?
A: 0.972 µM

Q: And the IC50 (KM12)?
A: 1.94 µM

Q: And the IC50 (KY821)?
A: > 2 µM

Q: What about the IC50 (L-363) of the same compound?
A: > 2 µM

Q: And the IC50 (LB2241-RCC)?
A: > 2 µM

Q: And the IC50 (LB831-BLC)?
A: > 2 µM

Q: What about the IC50 (LS-123) of the same compound?
A: > 2 µM

Q: What about the IC50 (LS-411N) of the same compound?
A: > 2 µM

Q: What about the IC50 (LU-134-A) of the same compound?
A: > 2 µM

Q: What about the IC50 (MEG-01) of the same compound?
A: > 2 µM

Q: What about the IC50 (MFH-ino) of the same compound?
A: > 2 µM

Q: And the IC50 (MIA PaCa-2)?
A: > 2 µM

Q: What about the IC50 (MKN-45) of the same compound?
A: > 2 µM

Q: And the IC50 (MOLT-16)?
A: > 2 µM

Q: And the IC50 (MOLT-4)?
A: > 2 µM

Q: And the IC50 (MV4-11)?
A: 0.295 µM

Q: What about the IC50 (MZ2-MEL) of the same compound?
A: > 2 µM

Q: What about the IC50 (NB13) of the same compound?
A: > 2 µM

Q: What about the IC50 (NB69) of the same compound?
A: > 2 µM

Q: What about the IC50 (NCI-H1299) of the same compound?
A: > 2 µM

Q: And the IC50 (NCI-H1395)?
A: > 2 µM

Q: What about the IC50 (NCI-H1581) of the same compound?
A: > 2 µM

Q: And the IC50 (NCI-H1651)?
A: > 2 µM

Q: And the IC50 (NCI-H2126)?
A: > 2 µM

Q: And the IC50 (NCI-H526)?
A: > 2 µM

Q: What about the IC50 (NCI-H720) of the same compound?
A: > 2 µM

Q: What about the IC50 (NKM-1) of the same compound?
A: > 2 µM

Q: What about the IC50 (P30-OHK) of the same compound?
A: > 2 µM

Q: And the IC50 (RPMI-2650)?
A: > 2 µM

Q: What about the IC50 (RS4-11) of the same compound?
A: > 2 µM

Q: And the IC50 (RXF 393)?
A: > 2 µM

Q: What about the IC50 (SK-LMS-1) of the same compound?
A: > 2 µM

Q: And the IC50 (SW982)?
A: > 2 µM

Q: And the IC50 (A204)?
A: > 2 µM

Q: What about the IC50 (A4-Fuk) of the same compound?
A: > 2 µM

Q: What about the IC50 (A-431) of the same compound?
A: > 2 µM

Q: What about the IC50 (ACN) of the same compound?
A: 0.865 µM

Q: And the IC50 (ALL-PO)?
A: > 2 µM

Q: What about the IC50 (BB49-HNC) of the same compound?
A: > 2 µM

Q: And the IC50 (BB65-RCC)?
A: > 2 µM

Q: What about the IC50 (BCPAP) of the same compound?
A: > 2 µM

Q: And the IC50 (BV-173)?
A: > 2 µM

Q: What about the IC50 (Becker) of the same compound?
A: > 2 µM

Q: And the IC50 (TGBC24TKB)?
A: > 2 µM

Q: And the IC50 (U-266)?
A: > 2 µM

Q: What about the IC50 (VA-ES-BJ) of the same compound?
A: > 2 µM

Q: And the IC50 (COLO-320-HSR)?
A: > 2 µM

Q: `O=c1cc(N2CCOCC2)oc2c(-c3cccc4c3sc3ccccc34)cccc12` was tested. Which IC50 (COLO-829) did it give?
A: > 2 µM

Q: And the IC50 (CP66-MEL)?
A: > 2 µM

Q: What about the IC50 (CW-2) of the same compound?
A: > 2 µM

Q: And the IC50 (DEL)?
A: > 2 µM

Q: And the IC50 (DJM-1)?
A: > 2 µM

Q: What about the IC50 (DoTc2-4510) of the same compound?
A: > 2 µM

Q: And the IC50 (EM-2)?
A: > 2 µM

Q: And the IC50 (ES4)?
A: > 2 µM

Q: What about the IC50 (GB-1) of the same compound?
A: > 2 µM

Q: And the IC50 (GI-ME-N)?
A: > 2 µM

Q: And the IC50 (GT3TKB)?
A: > 2 µM

Q: And the IC50 (HH)?
A: 1.18 µM

Q: And the IC50 (HL-60)?
A: 1.38 µM

Q: And the IC50 (IGROV-1)?
A: > 2 µM

Q: And the IC50 (IST-SL1)?
A: > 2 µM

Q: And the IC50 (JAR)?
A: > 2 µM

Q: What about the IC50 (KM12) of the same compound?
A: > 2 µM

Q: And the IC50 (L-363)?
A: > 2 µM

Q: What about the IC50 (LB2241-RCC) of the same compound?
A: > 2 µM

Q: And the IC50 (LB831-BLC)?
A: > 2 µM

Q: And the IC50 (LS-123)?
A: > 2 µM

Q: What about the IC50 (LS-411N) of the same compound?
A: > 2 µM

Q: And the IC50 (LU-134-A)?
A: > 2 µM

Q: What about the IC50 (MEG-01) of the same compound?
A: > 2 µM

Q: What about the IC50 (MFH-ino) of the same compound?
A: > 2 µM

Q: What about the IC50 (MIA PaCa-2) of the same compound?
A: > 2 µM

Q: And the IC50 (MKN-45)?
A: > 2 µM

Q: What about the IC50 (MOLT-16) of the same compound?
A: > 2 µM

Q: What about the IC50 (MOLT-4) of the same compound?
A: > 2 µM

Q: What about the IC50 (MV4-11) of the same compound?
A: > 2 µM

Q: What about the IC50 (MZ2-MEL) of the same compound?
A: > 2 µM

Q: What about the IC50 (NB13) of the same compound?
A: > 2 µM

Q: And the IC50 (NB69)?
A: > 2 µM

Q: And the IC50 (NCI-H1299)?
A: > 2 µM

Q: What about the IC50 (NCI-H1395) of the same compound?
A: > 2 µM

Q: What about the IC50 (NCI-H1581) of the same compound?
A: > 2 µM

Q: And the IC50 (NCI-H1651)?
A: > 2 µM

Q: What about the IC50 (NCI-H2126) of the same compound?
A: > 2 µM

Q: What about the IC50 (NCI-H526) of the same compound?
A: 0.284 µM

Q: And the IC50 (NKM-1)?
A: > 2 µM

Q: And the IC50 (P30-OHK)?
A: > 2 µM

Q: And the IC50 (RPMI-2650)?
A: > 2 µM

Q: And the IC50 (RS4-11)?
A: > 2 µM

Q: What about the IC50 (RXF 393) of the same compound?
A: > 2 µM

Q: What about the IC50 (SK-LMS-1) of the same compound?
A: > 2 µM

Q: What about the IC50 (SW982) of the same compound?
A: > 2 µM

Q: What about the IC50 (A204) of the same compound?
A: > 2 µM

Q: What about the IC50 (A4-Fuk) of the same compound?
A: > 2 µM

Q: And the IC50 (A-431)?
A: > 2 µM

Q: And the IC50 (ACN)?
A: > 2 µM

Q: And the IC50 (ALL-PO)?
A: > 2 µM

Q: What about the IC50 (BB49-HNC) of the same compound?
A: > 2 µM

Q: And the IC50 (BB65-RCC)?
A: > 2 µM

Q: And the IC50 (BCPAP)?
A: > 2 µM

Q: And the IC50 (Becker)?
A: > 2 µM

Q: What about the IC50 (TGBC24TKB) of the same compound?
A: > 2 µM

Q: And the IC50 (U-266)?
A: > 2 µM

Q: What about the IC50 (VA-ES-BJ) of the same compound?
A: > 2 µM

Q: And the IC50 (COLO-320-HSR)?
A: > 2 µM
